Results: PubChem BioAssay (NCI)
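GI50 marks 50% less growth. TGI marks complete inhibition of growth.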

Legend:
Assay in all cases: NCI-60 cell line screen, 384-well format
786-0 renal = system: 786-0 renal
A498 renal = system: A498 renal
A549 NSCLC = system: A549 NSCLC
BT-549 breast = system: BT-549 breast
CCRF-CEM leukemia = system: CCRF-CEM leukemia
COLO 205 colon = system: COLO 205 colon
DU-145 prostate = system: DU-145 prostate
EKVX NSCLC = system: EKVX NSCLC
HCC-2998 colon = system: HCC-2998 colon
HCT-15 colon = system: HCT-15 colon
HL-60(TB) leukemia = system: HL-60(TB) leukemia
HOP-62 NSCLC = system: HOP-62 NSCLC
HOP-92 NSCLC = system: HOP-92 NSCLC
HS 578T breast = system: HS 578T breast
HT29 colon = system: HT29 colon
IGROV1 ovarian = system: IGROV1 ovarian
K-562 leukemia = system: K-562 leukemia
KM12 colon = system: KM12 colon
M14 melanoma = system: M14 melanoma
MALME-3M melanoma = system: MALME-3M melanoma
MCF7 breast = system: MCF7 breast
MDA-MB-231 breast = system: MDA-MB-231 breast
MDA-MB-435 melanoma = system: MDA-MB-435 melanoma
MDA-MB-468 breast = system: MDA-MB-468 breast
MOLT-4 leukemia = system: MOLT-4 leukemia
NCI-H23 lung = system: NCI-H23 lung
NCI-H322M lung = system: NCI-H322M lung
NCI-H522 lung = system: NCI-H522 lung
NCI/ADR-RES ovarian = system: NCI/ADR-RES ovarian
OVCAR-3 ovarian = system: OVCAR-3 ovarian
OVCAR-4 ovarian = system: OVCAR-4 ovarian
OVCAR-5 ovarian = system: OVCAR-5 ovarian
OVCAR-8 ovarian = system: OVCAR-8 ovarian
PC-3 prostate = system: PC-3 prostate
RPMI-8226 leukemia = system: RPMI-8226 leukemia
RXF 393 renal = system: RXF 393 renal
SF-268 CNS = system: SF-268 CNS
SF-295 CNS = system: SF-295 CNS
SF-539 CNS = system: SF-539 CNS
SK-MEL-28 melanoma = system: SK-MEL-28 melanoma
SK-MEL-5 melanoma = system: SK-MEL-5 melanoma
SK-OV-3 ovarian = system: SK-OV-3 ovarian
SN12C renal = system: SN12C renal
SNB-75 CNS = system: SNB-75 CNS
SR leukemia = system: SR leukemia
SW-620 colon = system: SW-620 colon
UACC-257 melanoma = system: UACC-257 melanoma
UACC-62 melanoma = system: UACC-62 melanoma
UO-31 renal = system: UO-31 renal

CC[C@H](Nc1nc(NCc2cnc(C)cc2C)c2ncn(C(C)C)c2n1)[C@@H](C)O
GI50 ([…]-0 renal): 0.227 µM | TGI (786-0 renal): 0.657 µM | GI50 (A498 renal): 0.24 µM | TGI (A498 renal): 0.648 µM | GI50 (A549 NSCLC): 0.315 µM | TGI (A549 NSCLC): > 100 µM | GI50 (BT-549 breast): 0.138 µM | TGI (BT-549 breast): 0.294 µM | GI50 (CCRF-CEM leukemia): 0.16 µM | TGI (CCRF-CEM leukemia): 0.307 µM | GI50 (COLO 205 colon): 0.206 µM | TGI (COLO 205 colon): 0.508 µM | GI50 (DU-145 prostate): 0.302 µM | TGI (DU-145 prostate): 1.26 µM | GI50 (EKVX NSCLC): 0.267 µM | TGI (EKVX NSCLC): 0.757 µM | GI50 (HCC-2998 colon): 0.159 µM | TGI (HCC-2998 colon): 0.38 µM | GI50 (HCT-15 colon): 0.296 µM | TGI (HCT-15 colon): 0.817 µM | GI50 (HL-60(TB) leukemia): 0.148 µM | TGI (HL-60(TB) leukemia): 0.282 µM | GI50 (HOP-62 NSCLC): 0.225 µM | TGI (HOP-62 NSCLC): 0.638 µM | GI50 (HOP-92 NSCLC): 0.23 µM | TGI (HOP-92 NSCLC): 0.569 µM | GI50 (HS 578T breast): 0.134 µM | TGI (HS 578T breast): 0.291 µM | GI50 (HT29 colon): 0.198 µM | TGI (HT29 colon): 0.472 µM | GI50 (IGROV1 ovarian): 0.277 µM | TGI (IGROV1 ovarian): 0.797 µM | GI50 (K-562 leukemia): 0.286 µM | TGI (K-562 leukemia): 0.96 µM | GI50 (KM12 colon): 0.239 µM | TGI (KM12 colon): 0.737 µM | GI50 (M14 melanoma): 0.156 µM | TGI (M14 melanoma): 0.533 µM | GI50 (MALME-3M melanoma): 0.298 µM | TGI (MALME-3M melanoma): 0.967 µM | GI50 (MCF7 breast): 0.333 µM | TGI (MCF7 breast): 1.33 µM | GI50 (MDA-MB-231 breast): 0.196 µM | TGI (MDA-MB-231 breast): 0.767 µM | GI50 (MDA-MB-435 melanoma): 0.245 µM | TGI (MDA-MB-435 melanoma): 0.693 µM | GI50 (MDA-MB-468 breast): 0.182 µM | TGI (MDA-MB-468 breast): 0.334 µM | GI50 (MOLT-4 leukemia): 0.184 µM | TGI (MOLT-4 leukemia): 0.334 µM | GI50 (NCI-H23 lung): 0.173 µM | TGI (NCI-H23 lung): 0.343 µM | GI50 (NCI-H322M lung): 0.226 µM | TGI (NCI-H322M lung): 0.501 µM | GI50 (NCI-H522 lung): 0.18 µM | TGI (NCI-H522 lung): 0.341 µM | GI50 (NCI/ADR-RES ovarian): 1.54 µM | TGI (NCI/ADR-RES ovarian): 4.67 µM | GI50 (OVCAR-3 ovarian): 0.232 µM | TGI (OVCAR-3 ovarian): 0.516 µM | GI50 (OVCAR-4 ovarian): 0.316 µM | TGI (OVCAR-4 ovarian): 1.29 µM | GI50 (OVCAR-5 ovarian): 0.248 µM | TGI (OVCAR-5 ovarian): 0.691 µM | GI50 (OVCAR-8 ovarian): 0.225 µM | TGI (OVCAR-8 ovarian): 0.551 µM | GI50 (PC-3 prostate): 0.224 µM | TGI (PC-3 prostate): 0.594 µM | GI50 (RPMI-8226 leukemia): 0.149 µM | TGI (RPMI-8226 leukemia): 0.284 µM | GI50 (RXF 393 renal): 0.175 µM | TGI (RXF 393 renal): 0.349 µM | GI50 (SF-268 CNS): 0.166 µM | TGI (SF-268 CNS): 0.386 µM | GI50 (SF-295 CNS): 0.224 µM | TGI (SF-295 CNS): 0.522 µM | GI50 (SF-539 CNS): 0.185 µM | TGI (SF-539 CNS): 0.383 µM | GI50 (SK-MEL-28 melanoma): 0.163 µM | TGI (SK-MEL-28 melanoma): 0.335 µM | GI50 (SK-MEL-5 melanoma): 0.139 µM | TGI (SK-MEL-5 melanoma): 0.291 µM | GI50 (SK-OV-3 ovarian): 0.452 µM | TGI (SK-OV-3 ovarian): 3.39 µM | GI50 (SN12C renal): 0.217 µM | TGI (SN12C renal): 0.487 µM | GI50 (SNB-75 CNS): 0.183 µM | TGI (SNB-75 CNS): 0.424 µM | GI50 (SR leukemia): 0.137 µM | TGI (SR leukemia): 0.269 µM | GI50 (SW-620 colon): 0.205 µM | TGI (SW-620 colon): 0.78 µM | GI50 (UACC-257 melanoma): 0.232 µM | TGI (UACC-257 melanoma): 0.445 µM | GI50 (UACC-62 melanoma): 0.171 µM | TGI (UACC-62 melanoma): 0.397 µM | GI50 (UO-31 renal): 0.353 µM | TGI (UO-31 renal): > 100 µM
